The source of these data is PubChem BioAssay (NCI).

Some test systems named below: SF-295 CNS; NCI-H460 lung; PC-3 prostate; T-47D breast; NCI-H522 lung; LOX IMVI melanoma; SK-OV-3 ovarian; NCI/ADR-RES ovarian; UACC-257 melanoma; KM12 colon.
Common to all, as to test: NCI anticancer screen, dose series, 48 h

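Grown in 96-well plates, cells were treated for 48 hours with each compound at five concentrations. Insufficient inhibition: endpoint recorded as highest concentration tested. GI50 marks 50% less growth. At the TGI there is no net growth.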 Where only a bound is given, the exact number is not on record here.

On to `CC(C)[C@@](O)(c1ccc2cc(OC(F)F)c(OC(F)F)cc2c1)c1cn[nH]n1`, for which the GI50 in the assay on SF-295 CNS was 14.2 µM; in the assay on NCI-H460 lung, 18 µM; in the assay on PC-3 prostate it was 14.9 µM; with T-47D breast it was 13.4 µM; in the assay on NCI-H522 lung, 14.3 µM; with LOX IMVI melanoma it was 15.8 µM. The GI50 in the assay on SK-OV-3 ovarian is 16.2 µM; with NCI/ADR-RES ovarian it was 18.5 µM; in the assay on UACC-257 melanoma, 22.8 µM; in the assay on KM12 colon it was 17.5 µM. Moreover, the TGI with SF-295 CNS is 29.7 µM; in the assay with NCI-H460 lung, 37.4 µM; in the assay on PC-3 prostate it was 36 µM; with T-47D breast it was 53.1 µM; in the assay with NCI-H522 lung, 32.3 µM; in the assay on LOX IMVI melanoma it was 29.2 µM. In addition, the TGI in the assay with SK-OV-3 ovarian stood at 38.1 µM; with NCI/ADR-RES ovarian, 50.9 µM; in the assay with UACC-257 melanoma, 48.5 µM; with KM12 colon it was 39.2 µM.

Turning to `N#CC1=C(N)NC(=S)NC12Nc1ccccc1S2` (stereo not given), the GI50 is 11.5 µM in the assay on SF-295 CNS; 17 µM with NCI-H460 lung; 22 µM in the assay on PC-3 prostate; 29.9 µM in the assay with T-47D breast; 21.3 µM with NCI-H522 lung; 17 µM in the assay with LOX IMVI melanoma. Besides, the GI50 in the assay on SK-OV-3 ovarian is 37.1 µM; with NCI/ADR-RES ovarian it was 26.7 µM; in the assay on UACC-257 melanoma it was 29 µM; in the assay on KM12 colon, 24.9 µM. Moreover, the TGI in the assay on SF-295 CNS was 31.7 µM; in the assay on NCI-H460 lung, 45.8 µM; with PC-3 prostate, 71.7 µM; in the assay on T-47D breast, greater than 100 µM; in the assay on NCI-H522 lung, 70.5 µM; in the assay with LOX IMVI melanoma, 44.7 µM. Further, the TGI with SK-OV-3 ovarian is greater than 100 µM; in the assay with NCI/ADR-RES ovarian, 88.7 µM; in the assay on UACC-257 melanoma, greater than 100 µM; in the assay with KM12 colon, 75.5 µM.

Take `C=CC(=O)N1C[C@@H]2CCOc3c(Cl)c(-c4c(O)cccc4F)c(F)c4ncnc(c34)N2C[C@H]1C`: the GI50 with SF-295 CNS is 15.6 µM; with NCI-H460 lung it was 15.2 µM; in the assay with PC-3 prostate, 17.9 µM; in the assay on T-47D breast, 14.9 µM; with NCI-H522 lung, 14.2 µM; in the assay on LOX IMVI melanoma it was 12 µM. Further, the GI50 is 17.3 µM with SK-OV-3 ovarian, 17.4 µM in the assay with NCI/ADR-RES ovarian, 13 µM in the assay on UACC-257 melanoma and 14.7 µM with KM12 colon. Also, the TGI in the assay on SF-295 CNS is 32.5 µM; in the assay with NCI-H460 lung it was 32.1 µM; in the assay on PC-3 prostate, greater than 100 µM; with T-47D breast, 87.4 µM; in the assay with NCI-H522 lung, 30.9 µM; with LOX IMVI melanoma it was 24.4 µM. Also, the TGI came out at 42.7 µM in the assay with SK-OV-3 ovarian, 62.6 µM with NCI/ADR-RES ovarian, 30.3 µM in the assay with UACC-257 melanoma and 36.1 µM in the assay with KM12 colon.

As to `COc1cc([N+](=O)[O-])c(OC)cc1-c1nc2sc(C)cn2c1/C(N)=N/C(=N)N`, the GI50 is 16.6 µM in the assay with SF-295 CNS; 43.7 µM in the assay with NCI-H460 lung; 45.9 µM in the assay with PC-3 prostate; greater than 100 µM in the assay with T-47D breast; 26.5 µM in the assay with NCI-H522 lung; 30.4 µM with LOX IMVI melanoma. Besides, the GI50 is greater than 100 µM in the assay with SK-OV-3 ovarian, greater than 100 µM in the assay on NCI/ADR-RES ovarian, 18.4 µM in the assay on UACC-257 melanoma and 2.24 µM with KM12 colon. Moreover, the TGI in the assay on SF-295 CNS, in the assay on NCI-H460 lung, with PC-3 prostate, in the assay on T-47D breast, in the assay on NCI-H522 lung and in the assay with LOX IMVI melanoma was greater than 100 µM in each case. The TGI with SK-OV-3 ovarian was greater than 100 µM; with NCI/ADR-RES ovarian, greater than 100 µM; in the assay on UACC-257 melanoma, 67 µM; in the assay on KM12 colon it was 11.1 µM.

For `O=c1cnnc(N/N=C/c2ccccc2O)[nH]1`, the GI50 is 3.11 µM with SF-295 CNS; 1.56 µM in the assay on NCI-H460 lung; 2.99 µM in the assay with PC-3 prostate; 0.0656 µM in the assay on T-47D breast; 1.26 µM in the assay with NCI-H522 lung; 1.07 µM with LOX IMVI melanoma. Further, the GI50 was 3.6 µM with SK-OV-3 ovarian, 1.28 µM with NCI/ADR-RES ovarian, 0.489 µM in the assay on UACC-257 melanoma and 2.85 µM with KM12 colon. Also, the TGI in the assay on SF-295 CNS is greater than 100 µM; with NCI-H460 lung, greater than 100 µM; in the assay on PC-3 prostate, greater than 100 µM; in the assay on T-47D breast, greater than 100 µM; in the assay on NCI-H522 lung, greater than 30.5 µM; in the assay on LOX IMVI melanoma it was greater than 48.2 µM. Besides, the TGI with SK-OV-3 ovarian was greater than 100 µM; in the assay on NCI/ADR-RES ovarian it was greater than 64.5 µM; in the assay on UACC-257 melanoma it was 6.8 µM; with KM12 colon, greater than 100 µM.

Consider `CCOC(=O)C1=C(C)NC(=O)NC1CN1C(=O)c2ccccc2C1=O` (stereo not given), for which the GI50 in the assay on SF-295 CNS, in the assay with NCI-H460 lung, in the assay on PC-3 prostate, in the assay on T-47D breast, in the assay on NCI-H522 lung and in the assay with LOX IMVI melanoma was greater than 100 µM each time. Also, the GI50 with SK-OV-3 ovarian, in the assay with NCI/ADR-RES ovarian, in the assay on UACC-257 melanoma and in the assay with KM12 colon was greater than 100 µM throughout. For the same molecule, the TGI with SF-295 CNS, in the assay on NCI-H460 lung, in the assay with PC-3 prostate, with T-47D breast, in the assay on NCI-H522 lung and in the assay on LOX IMVI melanoma was greater than 100 µM throughout. Moreover, the TGI with SK-OV-3 ovarian, in the assay on NCI/ADR-RES ovarian, in the assay with UACC-257 melanoma and with KM12 colon was greater than 100 µM each time.

For the molecule `COc1ccc(NC2=C(I)C(=O)c3ncccc3C2=O)cc1`, the GI50 is 1.67 µM with SF-295 CNS; 0.647 µM with NCI-H460 lung; 0.972 µM in the assay on PC-3 prostate; 1.59 µM in the assay on T-47D breast; 0.827 µM in the assay with NCI-H522 lung; 0.309 µM with LOX IMVI melanoma. Moreover, the GI50 in the assay with SK-OV-3 ovarian was 1.36 µM; in the assay on NCI/ADR-RES ovarian, 1.57 µM; with UACC-257 melanoma it was 1.35 µM; in the assay with KM12 colon it was 1.68 µM. The TGI in the assay with SF-295 CNS came to 3.16 µM; in the assay with NCI-H460 lung, 2.24 µM; in the assay on PC-3 prostate, 7.99 µM; with T-47D breast it was 4.17 µM; in the assay on NCI-H522 lung, 2.53 µM; in the assay with LOX IMVI melanoma, 1.57 µM. Also, the TGI in the assay on SK-OV-3 ovarian amounted to 2.72 µM; in the assay with NCI/ADR-RES ovarian it was 4.41 µM; in the assay with UACC-257 melanoma, 2.72 µM; in the assay with KM12 colon, 3.77 µM.
